System: human dermal fibroblasts (HDFs)
Assay: Cell chemotaxis assay (modified Boyden's chamber), human dermal fibroblasts
Assay type: cell-based
From the text: NIH/3T3 fibroblasts at passage 126 were purchased from the American Type Culture Collection, Rockville, Md. Cultures from passages 129-133 were used in the chemotaxis assays. Cultures were propagated in DMEM supplemented with 10%. Calf serum and approximately 1% antibiotic antimycotic solution. Human dermal fibroblasts (HDFs) were purchased from Clonetics, Inc. (San Diego, Calif.) at passage 2. Cultures from passages 3-5 were used in the chemotaxis assays. Cultures were cultivated in DMEM supplemented with 20% FBS (Hyclone Laboratories, Inc., Logan, Utah) and approximately 1% antibiotic antimycotic solution (Gibco, Grand Island, N.Y.).
The procedure used to determine cellular chemotaxis was a combination of two known methodologies. A modification of Boyden's chamber was used as follows: Millicell-PCF (Millipore, Inc., Bedford, Mass.) (12.0 μm) 12.0 mm diameter inserts were placed in individual wells of 24 well plates to create the upper and lower chemotaxis chambers. Chemotaxis results were arrived at by performing checkerboard analysis for every combination of cells and growth factors. Concentrations ranging from 0.1, 1, 10, 100 ng/ml with/without added heparin (10 U/ml) were used for FGF-1, FGF-2 (no heparin) and FGF-4 with all the cell types mentioned in the materials section. Briefly, cultures were trypsanized and placed in DMEM+0.1% Bovine Serum Albumin (BSA) (Sigma Chemical Co., St. Louis, Mo.) for approximately one hour at 37° C. in a 5% CO2 humidified chamber. Tow to 2.5×10^5 cells in 50 μl were added per insert to the upper chamber of the setup of the 24 well plates. Treatments were added as mentioned above. The assay was kept at 37° C. in a 5% CO2 humidified chamber for 4 hours. All combinations tested were performed in triplicate. At the end of 4 hours, the plates were removed from the incubator and the filters were stained following the protocol for staining included with the Millicell-PCT inserts. Briefly, the fluid surrounding the inside and outside of the Millicell-PCF inserts were removed. Three percent glutaraldehyde (Sigma Chemical Co., St. Louis, Mo.) was added to the outside and inside of the inserts for approximately 20 minutes. Following removal of the 3.0% glutaraldehyde, 0.5% Triton X-100 (E.M. Science, Cherry Hill, N.J.) was added for 5-7 minutes. On removal of the 0.5% Triton X-100, Fisher's Hematoxylin Solution Gill's Formulation (Fisher Scientific, Newark, Del.) No.1 was added for about 10 minutes. This solution was washed off in running distilled water for about 5 minutes. Using a cotton swab the upper side of the filter was swabbed to remove cells which had not migrated. Filters, were mounted lower side facing up on slides in Crystal Mount™ (Biomedia, Inc., Foster City, Calif.) solution and 10 random field were counted per slide both visually at 400× and at 200×using an Image Analyzing System to automate the enumeration of the cells on the underside of the filters.
As required, checkerboard analysis was carried out to determine random migration, and positive and negative chemotaxis. Growth factors were added to the upper and/or lower chambers to observe whether cells migrated towards the GF alone (chemotaxis), whether migration was random irrespective of whether the growth factor was added to the upper or lower well (chemokinesis) or whether cell migration was against the chemotactic gradient (negative chemotaxis).

With “HBGF-1: heparin binding growth factor-1, also known as ECGF and FGF-1; recombinant HBGF-1β expressed in E. coli” the checkerboard analysis was “chemotactic”, the “maximal migratory response over negative control” value was 18 fold and the “migrated cells (checkerboard analysis)” value (lower 0 ng/ml, upper 0.1 ng/ml) was 48. +/− 1.965. The “migrated cells (checkerboard analysis)” value (lower 0 ng/ml, upper 1 ng/ml) was 1.3 +/− 0.351, the “migrated cells (checkerboard analysis)” value (lower 0 ng/ml, upper 10 ng/ml) was 4.6 +/− 2.424 and the “migrated cells (checkerboard analysis)” value (lower 0 ng/ml, upper 100 ng/ml) was 2.4 +/− 2.59. The “migrated cells (checkerboard analysis)” value (lower 0.1 ng/ml, upper 0 ng/ml) was 66.46 +/− 3.304, the “migrated cells (checkerboard analysis)” value (lower 0.1 ng/ml, upper 0.1 ng/ml) was 3.5 +/− 1.550 and the “migrated cells (checkerboard analysis)” value (lower 0.1 ng/ml, upper 1 ng/ml) was 22.0 +/− 6.621. The “migrated cells (checkerboard analysis)” value (lower 0.1 ng/ml, upper 10 ng/ml) was 9.7 +/− 7.758, the “migrated cells (checkerboard analysis)” value (lower 0.1 ng/ml, upper 100 ng/ml) was 11.6 +/− 8.609 and the “migrated cells (checkerboard analysis)” value (lower 1 ng/ml, upper 0 ng/ml) was 90.0 +/− 5.776. For the same substance, the “migrated cells (checkerboard analysis)” value (lower 1 ng/ml, upper 0.1 ng/ml) was 27.7 +/− 8.10, the “migrated cells (checkerboard analysis)” value (lower 1 ng/ml, upper 1 ng/ml) was 52.6 +/− 2.775 and the “migrated cells (checkerboard analysis)” value (lower 1 ng/ml, upper 10 ng/ml) was 9.7 +/− 3.553. For the same substance, the “migrated cells (checkerboard analysis)” value (lower 1 ng/ml, upper 100 ng/ml) was 1.83 +/− 2.2, the “migrated cells (checkerboard analysis)” value (lower 10 ng/ml, upper 0 ng/ml) was 92.4 +/− 29.307 and the “migrated cells (checkerboard analysis)” value (lower 10 ng/ml, upper 0.1 ng/ml) was 55.1 +/− 7.151. For the same substance, the “migrated cells (checkerboard analysis)” value (lower 10 ng/ml, upper 1 ng/ml) was 44.2 +/− 11.844, the “migrated cells (checkerboard analysis)” value (lower 10 ng/ml, upper 10 ng/ml) was 16.2 +/− 4.781 and the “migrated cells (checkerboard analysis)” value (lower 10 ng/ml, upper 100 ng/ml) was 21.2 +/− 6.42. The “migrated cells (checkerboard analysis)” value (lower 100 ng/ml, upper 0 ng/ml) was 65.4 +/− 22.055, the “migrated cells (checkerboard analysis)” value (lower 100 ng/ml, upper 0.1 ng/ml) was 53.7 +/− 7.3118 and the “migrated cells (checkerboard analysis)” value (lower 100 ng/ml, upper 1 ng/ml) was 54.9 +/− 18.599. The “migrated cells (checkerboard analysis)” value (lower 100 ng/ml, upper 10 ng/ml) was 49.166 +/− 9.152 and the “migrated cells (checkerboard analysis)” value (lower 100 ng/ml, upper 100 ng/ml) was 4.66 +/− 3.3.

Source: patent USRE39192E1, “Supplemented and unsupplemented tissue sealants, methods of their production and use” (American National Red Cross, priority 1990, dated 2006)
